Data as given in patent publication US9497970B2, “Pesticide compounds” (priority 2013, dated 2016).

How the values were obtained:
Assay type in all cases: in vivo
[1] = system: Mediterranean Fruitfly (Ceratitis capitata); test: B.6 Mediterranean Fruitfly (Ceratitis capitata), microtiter plate insect diet; conditions: 120 h, 800 ppm, sprayed onto insect diet, 5 days, in comparison with untreated controls, read-out: mortality (egg and larval)
Experimental: B.6 Mediterranean Fruitfly (Ceratitis capitata)
For evaluating control of Mediterranean fruitfly (Ceratitis capitata) the test unit consisted of microtiter plates containing an insect diet and 50-80 C. capitata eggs.
(§1) The compounds were formulated using a solution containing 75% v/v water and 25% v/v DMSO. Different concentrations of formulated compounds were sprayed onto the insect diet at 5 μl, using a custom built micro atomizer, at two replications.
(§2) After application, microtiter plates were incubated at about 28±1° C. and about 80±5% relative humidity for 5 days. Egg and larval mortality was then visually assessed.

[2] = system: Orchid thrips (dichromothrips corbetti); test: B.12 Orchid thrips (dichromothrips corbetti), floral-immersion technique; conditions: adult thrips on dipped orchid petals, 72 hours after treatment, in comparison with untreated controls
Experimental: B.12 Orchid thrips (dichromothrips corbetti)
Dichromothrips corbetti adults used for bioassay were obtained from a colony maintained continuously under laboratory conditions. For testing purposes, the test compound is diluted in a 1:1 mixture of acetone:water (vol:vol), plus Kinetic HV at a rate of 0.01% v/v.
Thrips potency of each compound was evaluated by using a floral-immersion technique. All petals of individual, intact orchid flowers were dipped into treatment solution and allowed to dry in Petri dishes. Treated petals were placed into individual resealable plastic along with about 20 adult thrips. All test arenas were held under continuous light and a temperature of about 28° C. for duration of the assay. After 3 days, the numbers of live thrips were counted on each petal. The percent mortality was recorded 72 hours after treatment.

[3] = system: Tobacco Budworm (Heliothis virescens); test: B.7 Tobacco Budworm (Heliothis virescens) I, microtiter plate insect diet; conditions: 120 h, 800 ppm, sprayed onto insect diet, 5 days, in comparison with untreated controls, read-out: mortality (egg and larval)
Experimental: B.7 Tobacco Budworm (Heliothis virescens) I
as §1, with “For evaluating control of tobacco budworm (Heliothis virescens) the test unit consisted of 96-well-microtiter plates containing an insect diet and 15-25 H. virescens eggs. The” for “The”, “at 10” for “at 5”
as §2

[4] = system: Boll Weevil (Anthonomus grandis); test: B.3 Boll Weevil (Anthonomus grandis), microtiter plate insect diet; conditions: 120 h, 800 ppm, sprayed onto insect diet, 5 days, in comparison with untreated controls, read-out: mortality (egg and larval)
Experimental: B.3 Boll Weevil (Anthonomus grandis)
For evaluating control of boll weevil (Anthonomus grandis) the test unit consisted of 96-well-microtiter plates containing an insect diet and 5-10 A. grandis eggs.
as §1
After application, microtiter plates were incubated at about 25±1° C. and about 75±5% relative humidity for 5 days. Egg and larval mortality was then visually assessed.

[5] = system: Diamond Back Moth (Plutella xylostella); test: B.1 Diamond Back Moth (Plutella xylostella), cabbage leaf dip; conditions: foliar, 500 ppm, 3rd instar larvae on dipped cabbage leaves, 72 hours after treatment, in comparison with untreated controls, read-out: mortality
Experimental: B.1 Diamond Back Moth (Plutella xylostella)
The active compound was dissolved at the desired concentration in a mixture of 1:1 (vol:vol) distilled water:aceteone. Surfactant (Kinetic HV) was added at a rate of 0.01% (vol/vol). The test solution was prepared at the day of use.
Leaves of cabbage were dipped in test solution and air-dried. Treated leaves were placed in petri dishes lined with moist filter paper and inoculated with ten 3rd instar larvae. Mortality was recorded 72 hours after treatment. Feeding damages were also recorded using a scale of 0-100%.

[6] = system: Yellow Fever Mosquito (Aedes aegypti); test: whole plant or invertebrate; conditions: 48 h, freshly hatched larvae in tap water, 2 days, in comparison with untreated controls, read-out: mortality (larval)
Experimental: B.11 Yellow Fever Mosquito (Aedes aegypti)
For evaluating control of yellow fever mosquito (Aedes aegypti) the test unit consisted of 96-well-microtiter plates containing 200 μl of tap water per well and 5-15 freshly hatched A. aegypti larvae.
The active compounds were formulated using a solution containing 75% (v/v) water and 25% (v/v) DMSO. Different concentrations of formulated compounds or mixtures were sprayed onto the insect diet at 2.5 μl, using a custom built micro atomizer, at two replications.

FC(F)(F)Oc1ccc(-c2onc3c2CCc2cc(/C=N/NC(=S)Nc4c(Cl)cc(Cl)cc4Cl)ccc2-3)cc1 [C-9, 1-(2,4,6-trichlorophenyl)-3-[(E)-[3-[4-(trifluoromethoxy)phenyl]-4,5-dihydrobenzo[g][2,1]benzoxazol-7-yl]methyleneamino]thiourea]
≥ 75%: mortality at 800 ppm [1] | mortality at 500 ppm [2]

Cc1ccc(Cl)cc1NC(=S)N/N=C/c1ccc2c(ccc3c2ncn3-c2ccc(OC(F)(F)F)cc2)c1 [C-21, 1-(5-chloro-2-methyl-phenyl)-3-[(E)-[3-[4-(trifluoromethoxy)phenyl]benzo[e]benzimidazol-7-yl]methyleneamino] thiourea]
≥ 75%: mortality at 800 ppm [1] | mortality at 800 ppm [3] | mortality at 500 ppm [2] | mortality at 800 ppm [4] | mortality at 500 ppm [5]

FC(F)(F)Oc1ccc(-n2cnc3c4ccc(/C=N/NC(=S)Nc5ccccc5Cl)cc4ccc32)cc1 [C-30, 3-(2-chlorophenyl)-1-[[3-[4-(trifluoromethoxy)phenyl]-8H-benzo[e]benzimidazol-7-ylidene]methylimino] isothiourea]
≥ 75%: mortality at 500 ppm [2] | mortality at 500 ppm [5]

Cc1cc(Cl)ccc1NC(=S)N/N=C/c1ccc2c(ccc3c2ncn3-c2ccc(OC(F)(F)F)cc2)c1 [C-38, 1-(4-chloro-2-methyl-phenyl)-3-[(E)-[3-[4-(trifluoromethoxy)phenyl]benzo[e]benzimidazol-7-yl]methyleneamino] thiourea]
≥ 75%: mortality at 800 ppm [1] | mortality at 800 ppm [3] | mortality at 500 ppm [2] | mortality at 800 ppm [4] | mortality at 500 ppm [5]

CC(C)c1ccccc1NC(=S)N/N=C/c1ccc2c(ccc3c2ncn3-c2ccc(OC(F)(F)F)cc2)c1 [C-45, 1-(2-isopropylphenyl)-3-[[3-[4-(trifluoromethoxy)phenyl]-3aH-benzo[e]benzimidazol-7-ylidene]methylimino] thiourea]
≥ 75%: mortality at 800 ppm [1] | mortality at 800 ppm [3] | mortality at 500 ppm [2] | mortality at 800 ppm [4] | mortality at 500 ppm [5]

Cc1cccc(C)c1NC(=S)N/N=C/c1ccc2c(c1)sc1c2ncn1-c1ccc(OC(F)(F)F)cc1 [C-47, 1-(2,6-dimethylphenyl)-3-[(E)-[3-[4-(trifluoromethoxy)phenyl]benzothiopheno[2,3-d]imidazol-6-yl]methyleneamino]thiourea]
≥ 75%: mortality at 800 ppm [1] | mortality at 800 ppm [3] | mortality at 800 ppm [6] | mortality at 800 ppm [4] | mortality at 500 ppm [5]

CCc1ccccc1NC(=S)N/N=C/c1ccc2c(ccc3c2cnn3-c2ccc(OC(F)(F)F)cc2)c1 [C-50, 1-(2-ethylphenyl)-3-[[3-[4-(trifluoromethoxy)phenyl]-5H-benzo[e]indazol-7-ylidene]methylimino]thiourea]
≥ 75%: mortality at 800 ppm [1] | mortality at 800 ppm [3] | mortality at 800 ppm [4] | mortality at 500 ppm [5]

FC(F)(F)Oc1ccc(-n2cnc3c4ccc(/C=N/NC(=S)Nc5c(Br)cccc5Br)cc4ccc32)cc1 [C-66, 1-(2,6-dibromophenyl)-3-[(E)-[3-[4-(trifluoromethoxy)phenyl]benzo[e]benzimidazol-7-yl]methyleneamino] thiourea]
≥ 75%: mortality at 800 ppm [1] | mortality at 800 ppm [3] | mortality at 500 ppm [2] | mortality at 800 ppm [4] | mortality at 500 ppm [5]

FC(F)(F)Oc1ccc(-n2cnc3c4ccc(/C=N/NC(=S)Nc5ccccc5Br)cc4ccc32)cc1 [C-67, 1-(2-bromophenyl)-3-[[3-[4-(trifluoromethoxy)phenyl]-5H-benzo[e]benzimidazol-7-ylidene]methylimino] thiourea]
≥ 75%: mortality at 800 ppm [1] | mortality at 800 ppm [3] | mortality at 800 ppm [4] | mortality at 500 ppm [5]

CCc1cccc(C)c1NC(=S)N/N=C(\C)c1ccc2c(ccc3c2ncn3-c2ccc(OC(F)(F)F)cc2)c1 [C-82, 1-(2-ethyl-6-methyl-phenyl)-3-[(E)-1-[3-[4-(trifluoromethoxy)phenyl]benzo[e]benzimidazol-7-yl]ethylideneamino]thiourea]
≥ 75%: mortality at 500 ppm [2] | mortality at 500 ppm [5]

Cc1cccc(C)c1NC(=S)N/N=C/c1ccc2c(ccc3c(-c4ccc(OC(F)(F)F)cc4)snc32)c1 [C-88, 1-(2,6-dimethylphenyl)-3-[(E)-[3-[4-(trifluoromethoxy)phenyl]benzo[g][2,1]benzothiazol-7-yl]methyleneamino] thiourea]
≥ 75%: mortality at 800 ppm [3] | mortality at 800 ppm [6]

Cc1cccc(Cl)c1NC(=S)N/N=C/c1ccc2c(ccc3c(-c4ccc(OC(F)(F)F)cc4)n(C)nc32)c1 [C-91, 1-(2-chloro-6-methyl-phenyl)-3-[(E)-[2-methyl-3-[4-(trifluoromethoxy)phenyl]benzo[g]indazol-7-yl]methyleneamino] thiourea]
≥ 75%: mortality at 800 ppm [1] | mortality at 800 ppm [3] | mortality at 800 ppm [4] | mortality at 500 ppm [5]

Cn1nc2c(ccc3cc(/C=N/NC(=S)Nc4c(Br)cccc4Br)ccc32)c1-c1ccc(OC(F)(F)F)cc1 [C-98, 1-(2,6-dibromophenyl)-3-[(E)-[2-methyl-3-[4-(trifluoromethoxy)phenyl]benzo[g]indazol-7-yl]methyleneamino] thiourea]
≥ 75%: mortality at 800 ppm [1] | mortality at 800 ppm [3] | mortality at 800 ppm [4] | mortality at 500 ppm [5]

Cn1nc2c(ccc3cc(/C=N/NC(=S)Nc4c(Cl)cccc4Cl)ccc32)c1-c1ccc(OC(F)(F)F)cc1 [C-99, 1-(2,6-dichlorophenyl)-3-[(E)-[2-methyl-3-[4-(trifluoromethoxy)phenyl]benzo[g]indazol-7-yl]methyleneamino]thiourea]
≥ 75%: mortality at 800 ppm [1] | mortality at 800 ppm [3] | mortality at 500 ppm [2] | mortality at 800 ppm [4]

Cc1cccnc1NC(=S)N/N=C/c1ccc2c(ccc3c(-c4ccc(OC(F)(F)F)cc4)n(C)nc32)c1 [C-101, 1-(3-methyl-2-pyridyl)-3-[(E)-[2-methyl-3-[4-(trifluoromethoxy)phenyl]benzo[g]indazol-7-yl]methyleneamino]thiourea]
≥ 75%: mortality at 800 ppm [1] | mortality at 800 ppm [3] | mortality at 500 ppm [2] | mortality at 800 ppm [4] | mortality at 500 ppm [5]

Cc1cccc(C)c1NC(=S)N/N=C/c1ccc2c(ccc3c2ncn3-c2ncc(C(F)(F)F)cc2Cl)c1 [C-112, 1-[[3-[3-chloro-5-(trifluoromethyl)-2-pyridyl]-3aH-benzo[e]benzimidazol-7-ylidene]methylimino]-3-(2,6-dimethylphenyl)thiourea]
≥ 75%: mortality at 800 ppm [1] | mortality at 800 ppm [3] | mortality at 800 ppm [6] | mortality at 800 ppm [4]

CC(C)c1ccccc1N1C(=O)CS/C1=N\C(=O)Nc1ccc2c(ccc3c2ncn3-c2ccc(OC(F)(F)F)cc2)c1 [C-115, (1Z)-1-[3-(2-isopropylphenyl)-4-oxo-thiazolidin-2-ylidene]-3-[3-[4(trifluoromethoxy)phenyl]benzo[e]benzimidazol-7-yl]urea]
≥ 75%: mortality at 800 ppm [1] | mortality at 800 ppm [3] | mortality at 800 ppm [6] | mortality at 800 ppm [4]

CC(C)c1ccccc1N/C(S)=N/C(=O)Nc1ccc2c(ccc3c2ncn3-c2ccc(OC(F)(F)F)cc2)c1 [C-117, (1Z)-1-[(2-isopropylanilino)-sulfanyl-methylene]-3-[3-[4-(trifluoromethoxy)phenyl]benzo[e]benzimidazol-7-yl]urea]
≥ 75%: mortality at 800 ppm [1] | mortality at 800 ppm [3] | mortality at 800 ppm [6] | mortality at 800 ppm [4]
